{"source": "patent US20220127570A1", "about": "“IMMUNE EFFECTOR CELL AND USE THEREOF” (CAFA THERAPEUTICS LIMITED, priority 2018, published 2022)", "key": {"[1]": {"system": "PLC/PRF/5 subcutaneous xenograft", "assay": "PLC/PRF/5 subcutaneous xenograft model, CAR T in combination with sorafenib", "format": "in vivo, NPG mice", "experimental": "2) Inoculation of subcutaneous xenograft: PLC/PRF/5 cells in the logarithmic growth phase and in good growth condition were collected by Trypsin digestion and washed once with normal saline. The cell density was adjusted to 1.5×10^7/mL and 200 μL of cell suspension was injected into the subcutaneous part of the right abdomen of NPG mice using a syringe, that is, each mouse was inoculated with 3×10^6 tumor cells, and the inoculation day was the 0th day.\n3) Injection of CAR T: On D14 days after subcutaneous inoculation of tumor cells, the average tumor volume was about 260 mm^3. CAR T cells were injected, and the injection dose: 2.0×10^6/animal. On D1-D14 days after subcutaneous inoculation of tumor cells, sorafenib was administered by gavage at a dose of 75 mg/kg, and the gavage volume was 200 ul, once a day, for 14 consecutive days, and the solvent was used as a negative control."}, "[2]": {"conditions": "cited from earlier work"}}}
{"smiles": "CNC(=O)c1cc(Oc2ccc(NC(=O)Nc3ccc(Cl)c(C(F)(F)F)c3)cc2)ccn1", "note": "[Sorafenib]", "values": [{"measurement": "tumor inhibiting rate", "setting": "[1]; D18 after injection of CAR T, compared with UTD control group, CAR T 2.0×10^6/animal, sorafenib 75 mg/kg gavage once a day for 14 days", "result": 27.38, "unit": "%"}, {"measurement": "body weight of mice compared with UTD", "setting": "[1]; at the beginning of the treatment", "result": "decreased"}, {"measurement": "body weight of mice", "setting": "[1]; at the end of the treatment", "result": "restored"}, {"measurement": "solubility in polyvinylglycerol 400 (PEG400)", "setting": "[2]; PEG400", "result": "soluble"}, {"measurement": "solubility in ethanol", "setting": "[2]; ethanol", "result": "slightly soluble"}, {"measurement": "solubility in water", "setting": "[2]; water", "result": "poorly soluble"}]}
